From ChEMBL document CHEMBL5143626, “Marine Natural Products as Leads against SARS-CoV-2 Infection” (J Nat Prod, 2022)
Calls of active or inactive are those of the source. The calls are words filed in the database; no cut-off is given here.

What was measured:
SARS-CoV-2 [1] = test: Antiviral activity against SARS-CoV-2 isolate USA-WA1/2020 infected in human Primary bronchial epithelial cells assessed as reduction in viral RNA replication at 2.8 uM preincubated for 1 hr followed by viral infection and measured after 48 hrs by qRT-PCR method relative to control; assay type: functional, Severe acute respiratory syndrome coronavirus 2, Primary bronchial epithelial cell; set-up: scale not given: the % may be the effect or the level left; conditions: time 49 hrs
[2] = (§1) Cytotoxicity against human Calu-3 cells assessed as reduction in cell viability; assay type: toxicity, cell-based; conditions: Calu-3 cells
SARS-CoV-2 [3] = test: Antiviral activity against SARS-CoV-2 isolate USA-WA1/2020 infected in Calu-3 cells preincubated for 24 hrs followed by viral infection and measured after 48 hrs by Hoechst 33342 staining based microscopic method; assay type: functional, organism-based; conditions: Severe acute respiratory syndrome coronavirus 2, USA-WA1/2020, Calu-3
SARS-CoV-2 [4] = test: Antiviral activity against SARS-CoV-2 isolate USA-WA1/2020 infected in Calu-3 cells at 2.8 uM preincubated for 24 hrs followed by viral infection and measured after 48 hrs by Hoechst 33342 staining based microscopic method; assay type: functional, organism-based; conditions: Severe acute respiratory syndrome coronavirus 2, time 72.0 hrs
SARS-CoV-2 [5] = test: Antiviral activity against SARS-CoV-2 isolate USA-WA1/2020 infected in Calu-3 cells assessed at 0.5 uM preincubated for 24 hrs followed by viral infection and measured after 48 hrs by Hoechst 33342 staining based microscopic method relative to control; assay type: functional, organism-based; conditions: Severe acute respiratory syndrome coronavirus 2, time 72.0 hrs
Calu-3 = test: as §1; assay type: toxicity, cell-based; conditions: calu-3
SARS-CoV-2 [6] = test: Antiviral activity against SARS-CoV-2 isolate USA-WA1/2020 infected in Calu-3 cells at 1 uM preincubated for 24 hrs followed by viral infection and measured after 48 hrs by Hoechst 33342 staining based microscopic method; assay type: functional, organism-based; conditions: Severe acute respiratory syndrome coronavirus 2, time 72.0 hrs
SARS-CoV-2 [7] = test: Antiviral activity against SARS-CoV-2 isolate USA-WA1/2020 infected in Calu-3 cells at 10 uM preincubated for 24 hrs followed by viral infection and measured after 48 hrs by Hoechst 33342 staining based microscopic method; assay type: functional, organism-based; conditions: Severe acute respiratory syndrome coronavirus 2, time 72.0 hrs

SMILES | Activity (SARS-CoV-2 [1]) | CC50 [2] | EC50 (SARS-CoV-2 [3]) | Activity (SARS-CoV-2 [4]) | Activity (SARS-CoV-2 [5]) | CC50 (Calu-3) | Activity (SARS-CoV-2 [6]) | Activity (SARS-CoV-2 [7])
CC(=O)C[C@]1(O)c2ccccc2-[n+]2ccc3c([nH]c4ccccc43)c21.O=C([O-])C(F)(F)F | >90% | 5 µM | 1.1 µM | Active | Active | – | – | –
C[C@H]1CC[C@H]2C(C)(C)CCC[C@]23Oc2ccc(O)cc2C[C@]13C [AUREOL] | – | – | 4 µM | – | – | > 10 µM | Active | Active
CC1=C2Cc3cc(ccc3O)C(=O)O[C@H](C(C)(C)Br)CC[C@](C)(O)[C@H](Br)CC[C@]2(C)[C@@H](Br)CC1 | – | – | 6.9 µM | – | – | > 10 µM | Active | Active
CC(C)=CCC[C@@H](C)[C@H]1CC[C@@]2(C(=O)O)C3=C(CC[C@]12C)[C@@]1(C)CC[C@H](O[C@@H]2OC[C@H](O)[C@H](O[C@@H]4OC[C@H](O)[C@H](O[C@@H]5O[C@H](CO)[C@H](O)[C@H](O)[C@H]5O)[C@H]4O)[C@H]2O[C@@H]2O[C@H](CO)[C@H](O)[C@H](O)[C@H]2O)C(C)(C)C1CC3 (stereo partly specified) | – | – | – | – | – | – | Active | –
CCC(CC)COC(=O)[C@H](C)N[P@](=O)(OC[C@H]1O[C@@](C#N)(c2ccc3c(N)ncnn23)[C@H](O)[C@@H]1O)Oc1ccccc1 [REMDESIVIR] | – | – | 0.3 µM | – | – | > 5 µM | – | –
